{
  "source": "patent US10336757B2",
  "about": "“Treatment of neurodegenerative diseases through inhibition of HSP90” (Sloan-Kettering Institute for Cancer Research, priority 2006, dated 2019)",
  "key": {"P-glycoprotein": {"target": "P-glycoprotein (Homo sapiens (Human), UniProt P08183)", "sequence (P08183 whole entry)": "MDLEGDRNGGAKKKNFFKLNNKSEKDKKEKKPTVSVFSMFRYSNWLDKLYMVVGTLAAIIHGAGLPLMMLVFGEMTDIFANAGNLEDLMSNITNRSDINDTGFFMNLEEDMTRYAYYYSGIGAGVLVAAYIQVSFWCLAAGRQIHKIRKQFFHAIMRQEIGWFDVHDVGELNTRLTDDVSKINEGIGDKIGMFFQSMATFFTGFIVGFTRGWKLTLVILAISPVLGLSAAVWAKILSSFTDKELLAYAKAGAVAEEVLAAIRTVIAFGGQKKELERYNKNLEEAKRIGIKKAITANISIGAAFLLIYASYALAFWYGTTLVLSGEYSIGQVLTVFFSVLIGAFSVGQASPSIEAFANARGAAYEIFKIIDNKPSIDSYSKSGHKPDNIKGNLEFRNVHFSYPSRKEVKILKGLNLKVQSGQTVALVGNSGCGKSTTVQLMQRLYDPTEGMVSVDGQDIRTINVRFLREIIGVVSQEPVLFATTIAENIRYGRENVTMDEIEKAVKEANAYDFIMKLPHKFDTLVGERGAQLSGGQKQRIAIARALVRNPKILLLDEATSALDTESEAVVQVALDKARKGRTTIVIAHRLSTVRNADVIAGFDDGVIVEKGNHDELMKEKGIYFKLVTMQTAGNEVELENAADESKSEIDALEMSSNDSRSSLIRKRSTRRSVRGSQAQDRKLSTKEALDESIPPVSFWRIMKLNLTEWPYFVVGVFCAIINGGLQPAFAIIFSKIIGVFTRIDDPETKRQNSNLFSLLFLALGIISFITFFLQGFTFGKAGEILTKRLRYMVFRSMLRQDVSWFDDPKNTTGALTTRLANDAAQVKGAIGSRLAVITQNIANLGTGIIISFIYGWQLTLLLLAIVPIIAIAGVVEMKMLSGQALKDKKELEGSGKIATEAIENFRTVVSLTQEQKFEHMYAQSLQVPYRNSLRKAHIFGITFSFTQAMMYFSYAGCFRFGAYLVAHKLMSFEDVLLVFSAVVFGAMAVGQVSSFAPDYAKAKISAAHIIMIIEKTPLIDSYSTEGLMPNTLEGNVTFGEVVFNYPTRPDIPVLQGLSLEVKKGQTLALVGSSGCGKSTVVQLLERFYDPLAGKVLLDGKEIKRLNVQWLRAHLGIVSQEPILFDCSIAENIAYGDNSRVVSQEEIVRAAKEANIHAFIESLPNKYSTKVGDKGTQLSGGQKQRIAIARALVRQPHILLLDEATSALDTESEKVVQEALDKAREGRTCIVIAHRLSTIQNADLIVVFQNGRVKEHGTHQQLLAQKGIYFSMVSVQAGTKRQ", "experiment": "P-glycoprotein substrate status", "format": "in vitro ADME", "conditions": "purine scaffold therapeutic"}, "[1]": {"experiment": "Assessment of PU-DZ8 brain levels by HPLC/MS/MS", "format": "in vivo, mouse", "conditions": "75 mg/kg i.p.", "procedure": "Assessment of PU-DZ8 brain levels. Concentrations of compound were determined and quantitated by a MRM mode using a tandem high-performance liquid chromatography-mass/mass spectrometry (HPLC/MS/MS). A weighed piece of brain was rinsed with saline isotonic solution, dried with gauze and then homogenized in mobile phase (acetonitrile (ACN)/0.1% formic acid=1.2/2.8, v/v). Haloperidol was added as internal standard. PU-DZ8 was extracted in methylene chloride, the organic layer was separated, speedily dried under vacuum and reconstituted in the mobile phase. Compound analysis was performed in the API 4000™ LC/MS/MS (Applied Biosystems) which was coupled with a Shimadzu LC system and a 96-well plate autosampler. A Gemini C18 column (5μ particle size, 50×4.6 mm I.D.) was used for the LC separation. The analyte was eluted under an isocratic condition for 4 min at a flow rate of 0.4 mL/min\nOne dose of PU-DZ8 (75 mg/kg) was administered intraperitoneally (i.p.) to female mice of 2.5-4 months in age (n=32) and animals were sacrificed in the interval of 0 to 36 h. Both aggregate-free Tau (S1) and insoluble Tau (P3) fractions were prepared from the subcortical and cortical regions of these mice. PU-DZ8 levels in the brain reached 0.35 μg/g (˜700 nM) at 4 h, and the pharmacologically relevant dose was retained for at least 12 h post-administration (0.2 μg/g, ˜390 nM)."}, "[2]": {"tested_on": "mutant tau (HT7), p35, cdk5, Hsp70", "experiment": "One dose PU-DZ8 in JNPL3 mice, S1 and P3 brain fractions by Western blot", "format": "in vivo, mouse", "conditions": "for soluble mutant tau (HT7), S1 fraction, subcortical brain region: from 4 h, maintained up to 36 h", "procedure": "JNPL3 female mice 6 months of age were treated IP with the Hsp90 inhibitor PU-DZ8 (75 mg/kg) and sacrificed various times as indicated in FIG. 9. Brains were divided in subcortical and cortical regions and processed using the Greenberg and Davies extraction protocol (77). Sarkosyl soluble fractions (S1) extracted from the subcortical region were analyzed by WB for p35, cdk5, mutant tau (HT7), Hsp90 and Hsp70. Protein bands were normalized to actin and plotted as relative change from untreated mice.\nTo investigate whether the human TauP301L present in the JNPL3 line of mice is a sensitive target for Hsp90 inhibition, animals were treated with the brain-barrier permeable Hsp90 inhibitor PU-DZ8. This agent is a higher-potency water soluble derivative of PU24FC1 (EC50JNPL3 brain Hsp90=70 nM). One dose of PU-DZ8 (75 mg/kg) was administered intraperitoneally (i.p.) to female mice of 2.5-4 months in age (n=32) and animals were sacrificed in the interval of 0 to 36 h. Both aggregate-free Tau (S1) and insoluble Tau (P3) fractions were prepared from the subcortical and cortical regions of these mice. Human Tau levels were assessed by immunobloting with a human specific anti-Tau antibody (HT-7). […] We next examined in a 4- to 6-month old mouse group (n=15) whether the stability of mTau as present in tau aggregates (P3 fraction) was additionally regulated by Hsp90.\nFor experiments designed to test the kinetics of mTau and p35 modulation by Hsp90 inhibitors, animals were administered intraperitoneally (i.p.) 75 mg/kg PU-DZ8 in PBS (6% DMSO). Mice were sacrificed by CO2 euthanasia at the indicated times following PU-DZ8 administration. Hemibrains were separated into cortico-limbic (cortex, amygdale and hippocampus) and subcortical (basal ganglia, diencephalon, brain stem and cerebellum) regions, quickly frozen on dry ice and stored at −80° C. and processed. In summary, each brain piece was weighed and homogenized in three volumes of Tris-buffered saline (TBS) containing protease and phosphatase inhibitors (25 mM Tris-HCl, pH 7.4, 150 mM NaCl, 1 mM EDTA, 1 mM EGTA, 5 mM sodium pyrophosphate, 30 mM β-glycerophosphate, 30 mM sodium fluoride, 1 mM phenylmethylsulfonyl fluoride (PMSF)). The homogenates were centrifuged at 27,000 g for 15 min at 4° C. Supernatants were collected as S1 fractions, and the pellets (P1) were re-homogenized in three volumes of salt/sucrose buffer (0.8 M NaCl, 10% sucrose, 10 mM Tris/HCl, pH 7.4, 1 mM EGTA, 1 mM PMSF) and centrifuged as above. The resulting pellets were discarded and the supernatants were incubated with sarkosyl (Sigma, St Louis, Mo., USA; 1% final concentration) for 1 h at 37° C. The sarkosyl mixtures were then centrifuged at 150,000 g for 30 min at 4° C. The supernatants (S2 fraction) were collected, and the pellets (P3) were resuspended in 50 μL 2% SDS in TBS and stored at −80° C. for western blotting. Proteins were analyzed by Western blot."}, "[3]": {"conditions": "cited from earlier work"}, "[4]": {"tested_on": "p35 and Tau phosphorylation on Ser202", "experiment": "One dose PU-DZ8 in hTau mice, cortical S1 fractions", "format": "in vivo, mouse", "conditions": "75 mg/kg i.p.", "procedure": "The majority of Tau pathology in hTau mice is located in the cortical brain region. These mice express six isoforms of non-mutant human Tau, but develop AD-like Tau-pathology. Heat-stable fractions (S1) prepared from cortical homogenates of these mice indicate an age-related accumulation of Tau phosphorylated at putative cdk5 sites. […] Aggregate-free Tau (S1) fractions were prepared from the cortical region of these mice and human Tau levels assessed by immunobloting with an antibody specific for 3-repeat domain Tau (RD3). By analogy to experiments on primary neuronal cultures and WT Tau transfected cells, the Hsp90 inhibitor had no effect on soluble WT Tau expression. […] The monoclonal antibody CP13 is commonly used to detect Tau pathology in both early and more advanced stages of Tau aggregate accumulation (41)."}},
  "note": "“And” between values parts separate entries of the source, which are not always exact repeats. Equal values may be shown once.",
  "data": [
    {"compound": "CC(C)NCCCn1c(Cc2cc3c(cc2I)OCO3)nc2c(N)nc(F)nc21", "note": "[PU-DZ8]", "values": [
      {"measurement": "P-gp substrate", "setting": "P-glycoprotein", "result": "not a substrate of P-pg"},
      {"measurement": "levels in the brain", "setting": "[1]; 12 h post-administration", "result": "0.2 μg/g and ~390 nM"},
      {"measurement": "levels in the brain", "setting": "[1]; at 4 h", "result": "0.35 μg/g and ~700 nM"},
      {"measurement": "chaperone levels (hsp70)", "setting": "[2]; one dose 75 mg/kg IP", "result": "hsp70 increase"},
      {"measurement": "cdk5 expression", "setting": "[2]; one dose 75 mg/kg i.p.", "result": "No significant changes"},
      {"measurement": "expressions of Akt and Raf-1", "setting": "[2]; one dose 75 mg/kg i.p.", "result": "not altered"},
      {"measurement": "insoluble and hyperphosphorylated Tau (P3 fraction)", "setting": "[2]; one dose 75 mg/kg i.p., 4- to 6-month old mice", "result": "significant reduction"},
      {"measurement": "soluble mutant tau (HT7), S1 fraction, subcortical brain region", "setting": "[2]; one dose 75 mg/kg i.p.", "result": "significant decrease"},
      {"measurement": "soluble mutant tau (HT7), S1 fraction, subcortical brain region", "setting": "[2]; one dose 75 mg/kg i.p., listed as DZ8", "result": "degradation of the mutant protein"},
      {"measurement": "solubility", "setting": "[3]", "result": "water soluble"},
      {"measurement": "Tau phosphorylation on Ser202 (antibody CP13)", "setting": "[4]; 8 h post-administration", "result": "alleviation of Tau phosphorylation"},
      {"measurement": "p35 levels", "setting": "[4]; 8 h post-administration", "result": "significant time-dependent reduction"},
      {"measurement": "soluble WT Tau expression", "setting": "[4]; cortical S1", "result": "no effect"}
    ]}
  ]
}
